From patent US9265922B2, “System and method for improving outcome of cerebral ischemia” (ASTUCE, INC., priority 2012, dated 2016)
Entries after “also recorded” stand apart in the source; their conditions may differ.

Assays:
intubated rodents = experiment: Cerebral blood flow by cortical laser Doppler during intranasal nitric oxide in intubated rodents; assay type: in vivo
Protocol: (§1) In intubated rodents, the inventors have shown that cerebral blood flow increases by 100% within 60 minutes of intranasal nitric oxide delivery.

[1] = test system: carotid artery occlusion model; experiment: Carotid artery occlusion model, Speckle laser Doppler, intranasal nitric oxide; assay type: in vivo, rodents
Protocol: as §1
Increase in cerebral blood flow is attributable to focal intranasal or intra-oral effect of nitric oxide rather than to systemic absorption of the gas. […] The effect on cerebral blood flow during intranasal delivery of nitric oxide with concomitant air inhalation into the lungs is therefore a focal effect on intranasal and intracranial vasculature attributable specifically to nitric oxide. […] In a non-intubated patient, nitric oxide inhalation can be prevented by occluding the nasal cavity anterior or posterior to the site of gas delivery. This is achieved by means of an anterior occlusion device such a rigid member, an expandable member, a compressible member, a sponge, a porous member, a plug, a balloon, foam and/or combinations of the foregoing, which prevent inhalation through the nostrils while maintaining a high concentration of nitric oxide in the nasal cavity. A non-intubated patient may be allowed to inhale air into the lungs during nitric oxide delivery into the nasal cavity by an optional central lumen with the distal orifice beyond the sites of nasal gas delivery and occlusion device.

[2] = test system: patients with cerebral ischemia; experiment: CT perfusion scanning in intubated patients with cerebral ischemia before and after intranasal nitric oxide; assay type: in vivo, human
[3] = test system: humans (normal volunteers); experiment: Tolerability of intranasal nitric oxide in normal volunteers; assay type: in vivo, human; conditions: high concentration, delivered intra-nasally and without inhalation
Source text: While nitric oxide may be given intranasally and without inhalation into the lungs to intubated, comatose individuals the tolerability of intranasal nitric oxide in awake humans has not previously been investigated. The inventors have tested the effect of nitric oxide in humans (normal volunteers) during intranasal delivery. […] Therefore it can easily be tolerated by awake, non-intubated patients.

[N]=O [nitric oxide]
cerebral blood flow (FIG. 8, cortical laser Doppler) (intubated rodents; during intranasal administration): doubling of cerebral blood flow
cerebral blood flow increase (intubated rodents; within 60 minutes of intranasal non-inhaled nitric oxide delivery): 100%
perfusion in the ischemic hemisphere ([1]; both during the carotid occlusion and following ligature release (FIG. 9)): improved
cerebral ischemia (FIG. 9, Speckle laser Doppler tracing) ([1]; intubated rodents given intranasal nitric oxide): reduction of cerebral ischemia
increase in perfusion on L (Cerebral Blood Flow, ACA Watershed) ([2]; Post Rx versus Pre Rx, left ischemic hemisphere): 67% increase in
Mean Transit Time, Changes in ACA Watershed ([2]; Post Rx, Pre Rx 4 sec delay): Normalization
Cerebral Blood Flow, Changes in ACA Watershed ([2]; Post Rx, Pre Rx 37% lower on ischemic side): Normalization,
cerebral perfusion by CT perfusion scanning ([2]; intubated patients with cerebral ischemia, during treatment with intranasal nitric oxide (FIGS. 10, 11)): improvement in cerebral perfusion; also recorded: augmentation of cerebral perfusion and normalization of regional perfusion abnormalities
tolerability of gas treatment [3]: tolerated
